According to publication PMC11213733, “Computational approaches identify a transcriptomic fingerprint of drug-induced structural cardiotoxicity” (Cell Biology and Toxicology, 2024):
Where a name gives a salt, the structure may show the parent alone.

Assays:
cardiac microtissues [1] = test: Ingenuity Pathway Analysis over-representation of differentially expressed genes (activation Z-score); assay type: cell-based, human; details: 48hr high; Group 1
[2] = ref FDA label, cited from earlier work; for Structural cardiotoxin?: FDA label references heart failure or a decrease in left ventricular ejection fraction; for Functional cardiotoxin?: compound annotation
cardiac microtissues [3] = test: Transcriptomic profiling (mRNA-seq) and DESeq2 differential gene expression analysis in cardiac microtissues; details: absolute log2(Fold-Change) > 1, FDR p ≤ 0.05; for number of significant differentially expressed genes, 6hr high / number of significant differentially expressed genes, 48hr high / number of significant differentially expressed genes, 72hr high: high concentration; for number of significant differentially expressed genes, 6hr low / number of significant differentially expressed genes, 48hr low / number of significant differentially expressed genes, 72hr low: low concentration

## CC(=O)[C@]1(O)Cc2c(O)c3c(c(O)c2[C@@H](O[C@H]2C[C@H](N)[C@H](O)[C@H](C)O2)C1)C(=O)c1ccccc1C3=O [Idarubicin HCl]
Cardiac microtissues [1]
  activation Z-score: Acute Phase Response Signaling: -0.816
  activation Z-score: Apelin Liver Signaling Pathway: -0.707
  activation Z-score: BER (Base Excision Repair) Pathway: -2.333
  activation Z-score: Cardiac Hypertrophy Signaling: -1.732
  activation Z-score: Cardiomyocyte Differentiation via BMP Receptors: -2.236
  activation Z-score: Cell Cycle Control of Chromosomal Replication: -3.71
  activation Z-score: Cell Cycle Regulation by BTG Family Proteins: -1.342
  activation Z-score: Cyclins and Cell Cycle Regulation: -1.941
  activation Z-score: D-myo-inositol-5-phosphate Metabolism: 0.258
  activation Z-score: DNA Methylation and Transcriptional Repression Signaling: -0.535
  activation Z-score: Estrogen-mediated S-phase Entry: -1.897
  activation Z-score: Factors Promoting Cardiogenesis in Vertebrates: -2.117
  activation Z-score: G-Protein Coupled Receptor Signaling: 0.53
  activation Z-score: GP6 Signaling Pathway: 0.378
  activation Z-score: Glioma Invasiveness Signaling: -0.632
  activation Z-score: HIF1Î± Signaling: 0.209
  activation Z-score: HMGB1 Signaling: -0.577
  activation Z-score: Hepatic Fibrosis Signaling Pathway: -1.508
  activation Z-score: ILK Signaling: -3
  activation Z-score: Insulin Secretion Signaling Pathway: -0.192
  activation Z-score: Integrin Signaling: -1.877
  activation Z-score: Kinetochore Metaphase Signaling Pathway: -2.556
  activation Z-score: Mismatch Repair in Eukaryotes: -2.333
  activation Z-score: Mitotic Roles of Polo-Like Kinase: -1.604
  activation Z-score: NER (Nucleotide Excision Repair, Enhanced Pathway): -2.183
  activation Z-score: Nitric Oxide Signaling in the Cardiovascular System: 0.775
  activation Z-score: Protein Kinase A Signaling: 0.302
  activation Z-score: Pyridoxal 5'-phosphate Salvage Pathway: -1
  activation Z-score: RHOGDI Signaling: 0.816
  activation Z-score: Regulation Of The Epithelial Mesenchymal Transition By Growth Factors Pathway: -1.147
  activation Z-score: Role of NFAT in Cardiac Hypertrophy: -1.512
  activation Z-score: SPINK1 General Cancer Pathway: 2.333
  activation Z-score: Salvage Pathways of Pyrimidine Ribonucleotides: -1
  activation Z-score: Senescence Pathway: 1.768
  activation Z-score: Sphingosine-1-phosphate Signaling: 0
  activation Z-score: Superpathway of Inositol Phosphate Compounds: 0.894
  activation Z-score: Thrombin Signaling: -0.471
  activation Z-score: White Adipose Tissue Browning Pathway: -2.449
  activation Z-score: Wound Healing Signaling Pathway: -0.164
  activation Z-score: cAMP-mediated signaling: 0
[2]
  Structural cardiotoxin?: Y
  Functional cardiotoxin?: Y
Cardiac microtissues [3]
  number of significant differentially expressed genes, 6hr high: 24
  number of significant differentially expressed genes, 6hr low: 12
  number of significant differentially expressed genes, 48hr high: 2838
  number of significant differentially expressed genes, 48hr low: 578
  number of significant differentially expressed genes, 72hr high: 1616
  number of significant differentially expressed genes, 72hr low: 864

## O=c1[nH]cc(F)c(=O)[nH]1 [Fluorouracil]
Cardiac microtissues [1]
  activation Z-score: BER (Base Excision Repair) Pathway: -2.236
  activation Z-score: Cell Cycle Control of Chromosomal Replication: -4.359
  activation Z-score: Cell Cycle Regulation by BTG Family Proteins: -1.342
  activation Z-score: Cyclins and Cell Cycle Regulation: -2.714
  activation Z-score: DNA Methylation and Transcriptional Repression Signaling: -1.414
  activation Z-score: Estrogen-mediated S-phase Entry: -2.333
  activation Z-score: G-Protein Coupled Receptor Signaling: -1
  activation Z-score: Kinetochore Metaphase Signaling Pathway: -3.772
  activation Z-score: Mismatch Repair in Eukaryotes: -2
  activation Z-score: Mitotic Roles of Polo-Like Kinase: -2.309
  activation Z-score: NER (Nucleotide Excision Repair, Enhanced Pathway): -1.414
  activation Z-score: Protein Kinase A Signaling: 2
  activation Z-score: Pyridoxal 5'-phosphate Salvage Pathway: -1.89
  activation Z-score: RHOGDI Signaling: 2
  activation Z-score: Salvage Pathways of Pyrimidine Ribonucleotides: -2.121
  activation Z-score: Senescence Pathway: 2.324
  activation Z-score: Superpathway of Inositol Phosphate Compounds: -0.447
[2]
  Structural cardiotoxin?: Y
  Functional cardiotoxin?: Y
Cardiac microtissues [3]
  number of significant differentially expressed genes, 6hr high: 0
  number of significant differentially expressed genes, 6hr low: 0
  number of significant differentially expressed genes, 48hr high: 401
  number of significant differentially expressed genes, 48hr low: 1
  number of significant differentially expressed genes, 72hr high: 366
  number of significant differentially expressed genes, 72hr low: 200
